The record followed here is patent publication EP0626016B1, “[…] […]” (BRITISH TECHNOLOGY GROUP LIMITED, priority 1992, dated 1993).

In experiment [1] the target is T1, horseradish peroxidase Type VIA (Armoracia rusticana, UniProt P00433).
T1 construct: purchased Sigma Chemical Co
T1 sequence (P00433 31-338): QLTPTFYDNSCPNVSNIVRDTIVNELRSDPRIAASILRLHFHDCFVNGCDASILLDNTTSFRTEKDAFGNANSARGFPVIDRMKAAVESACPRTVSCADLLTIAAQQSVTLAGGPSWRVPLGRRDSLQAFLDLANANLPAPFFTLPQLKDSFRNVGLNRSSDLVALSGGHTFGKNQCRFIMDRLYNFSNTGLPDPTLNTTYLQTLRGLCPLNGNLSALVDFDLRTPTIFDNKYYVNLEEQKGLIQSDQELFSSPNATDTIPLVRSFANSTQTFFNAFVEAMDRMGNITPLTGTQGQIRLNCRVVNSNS
Description: Enhanced chemiluminescent assay for peroxide with 4-biphenylboronic acid (Example 8a). The format is biochemical. The settings on record: 10µl enhancer (1:20 dilution of 1mg/ml). As to the method: The assay reagent consisted of the following reagents: 10µl 4-biphenylboronic acid (1:20 dilution of a 1mg/ml stock in DMSO), 10µl horseradish peroxidase (1:500,000 dilution of a 1mg/ml stock Type VIA in 0.1 mol/l Tris buffer pH 8.6) and 100µl luminol (0.025 g/l in 0.1 mol/l Tris buffer pH 8.6). These were mixed together and the light emission measured. A 10µl sample of a hydrogen peroxide solution (dilutions of a stock, 31µl 30% w/v hydrogen peroxide/ml in Tris buffer) was added, the contents of the assay tube mixed and the light emission recorded.
From Table 9 it can be seen that there was a dose-dependent increase in light output up to 2.4µmoles of peroxide.

For experiment [2], the target named is T1, horseradish peroxidase Type VIA. The experiment in a line: Enhanced chemiluminescent assay for luminol with 4-biphenylboronic acid (Example 8b). Conditions: 10µl enhancer (1:20 dilution of 1mg/ml). The format is biochemical. As to the method: The assay reagent consisted of the following reagents: 10µl 4-biphenylboronic acid (1:20 dilution of a 1mg/ml stock in DMSO), 10µl horseradish peroxidase (1:500,000 dilution of a lmg/ml stock Type VIA in 0.1 mol/l Tris buffer pH 8.6) and 100µl hydrogen peroxide solution (31µl 30% w/v hydrogen peroxide diluted in 100ml Tris buffer). These were mixed together and the light emission measured. A 10µl sample of a luminol solution (dilutions of a 0.25g/l in 0.1 mol/l Tris buffer pH 8.6 stock) was added, the contents of the assay tube mixed and the light emission recorded.
From Table 10 it can be seen that there was a dose-dependent increase in light output at all concentrations of luminol tested.

Experiment [3] deals with T2, HRP Type VIA (Armoracia rusticana, UniProt P00433).
T2 sequence (P00433 31-338): T1 sequence (P00433 31-338)

In experiment [4] the target is T2, HRP Type VIA. Description: Effect of organoboron compounds on the luminol-hydrogen peroxide-HRP chemiluminescent reaction (Example 2). The format is biochemical, horseradish. The arrangement: purchased Sigma Chemical Co. The settings on record: test. As to the method: The stock solution of HRP Type VIA (1mg/ml) and luminol-hydrogen peroxide reagent were prepared as described previously. Luminol-hydrogen peroxide (100µl, 1:10 dilution) was mixed with either 10µl of HRP (1:50,000 dilution) or, 10µl of Tris buffer (0.1mol/l, pH 8.6). […] A control without any test compound was run in parallel.
The control consisted of buffer in place of the compound under test as an enhancer. […]

The next experiment has as its target T3, HRP (Armoracia rusticana, UniProt P00433).
T3 construct: purchased Sigma Chemical Co
T3 sequence (P00433 31-338): T1 sequence (P00433 31-338)
Description: PIBA enhancement of the HRP-luminol-peroxide reaction (Example 7). Format: biochemical, horseradish. The settings on record: for Signal: Background ratio: at 1 minute. As to the method:
PBBA was added in various concentrations (range 0.05µg to 0.5µg) to a luminol-H2O2 reaction in the presence and absence of HRP. The luminol-hydrogen peroxide reagent was prepared as follows: sodium luminol (12.5mg) was dissolved in 50ml of Tris buffer (0.1mol/l, pH 8.6), and 15.5µl of hydrogen peroxide (30% w/v) was mixed with 0.5ml of Tris buffer (0.lmol/l, pH 8.6). These two solutions were combined and protected from light. The luminol-hydrogen peroxide reagent (100µl of a 1:10 dilution) was added to a cuvette together with either 10µl of HRP Type VI A (HRP, Sigma Chemical Co., 1:50,000 dilution) or as a control 10µl of Tris Buffer (0.1mol/l, pH 8.6), and various amounts of PBBA (Aldrich Chemical Co.), range 0.05µg-0.5µg in 0.1mol/l Tris, pH 8.6). […]
The experiment of Example 1 was repeated using PIBA in place of PBBA. Various dilutions of PIBA (Cookson Chemicals Ltd., Southampton, UK, 1mg/ml stock in DMSO) in Tris buffer were used. […]

Take `OB(O)c1ccc(-c2ccccc2)cc1` [Compound 1011, 4-biphenylboronic acid]: the “Light emission at 5 minutes” value in experiment [1] (Hydrogen peroxide 0 µmoles) is given as 525; in experiment [1] (Hydrogen peroxide 0.00024 µmoles) it was 659; in experiment [1] (Hydrogen peroxide 0.0024 µmoles), 1,500; in experiment [1] (Hydrogen peroxide 0.024 µmoles), 40,682; in experiment [1] (Hydrogen peroxide 0.24 µmoles), 584,638; in experiment [1] (Hydrogen peroxide 2.4 µmoles), 620,551. The “Light emission at 5 minutes” value in experiment [1] (Hydrogen peroxide 24 µmoles) is 339,291. Further, the “Light emission at 10 minutes” value in experiment [2] (Luminol 0 µmoles) is recorded as 54; in experiment [2] (Luminol 0.00125 µmoles), 145; in experiment [2] (Luminol 0.0125 µmoles), 620; in experiment [2] (Luminol 0.125 µmoles), 5,161; in experiment [2] (Luminol 1.25 µmoles), 55,873; in experiment [2] (Luminol 12.5 µmoles), 358,184. Further, the “Light emission at 10 minutes” value in experiment [2] (Luminol 125 µmoles) was 834,089. In addition, at HRP Type VIA [3], the “(a) Decrease in background (without HRP with test cpd.)” value is listed as “Y”. For the same compound, on HRP Type VIA [3], the “(b) Increase in signal (with HRP, with test cpd.)” value is “Y”. For the same compound, the “(c) Increase in signal: background ratio” value on HRP Type VIA [3] is recorded as “Y (key: Column (c) shows whether there was an increase in the signal:background ratio by over 25% of the control value (Y = yes; N = no)”.

On to `OB(O)c1ccc(Cl)cc1Cl` [Compound 5002, 2,4-dichlorophenylboronic acid], for which, at HRP Type VIA [4] (5µl of 1mg/ml compound), the “Signal (no HRP)” value is recorded as 16,246, the “Signal (with HRP)” value was 128,274 and the “Signal: Background ratio” value turned out to be 7.9.

With `OB(O)c1ccccc1` [Compound 5004, phenylboronic acid], at HRP Type VIA [4] (5µl of 1mg/ml compound), the “Signal (no HRP)” value was 5,601, the “Signal (with HRP)” value was 54,554 and the “Signal: Background ratio” value came out at 9.7.

Consider `OB(O)c1ccc(I)cc1` [PIBA, para-iodophenylboronic acid], for which the “Light emission at 1 minute, Background” value at HRP (PIBA 0.01 µg) was 12,862; on HRP (PIBA 0.1 µg) it was 13,221; at HRP (PIBA 1 µg) it was 10,282; on HRP (PIBA 10 µg), 5,517; on HRP (PIBA 20 µg), 3,837. Moreover, the “Light emission at 1 minute, Signal” value on HRP (PIBA 0.01 µg) is 78,419; at HRP (PIBA 0.1 µg), 74,487; on HRP (PIBA 1 µg), 324,312; at HRP (PIBA 10 µg) it was 540,760; at HRP (PIBA 20 µg) it was 135,065. The “Signal: Background ratio” value at HRP (PIBA 0.01 µg) came to 6.1; on HRP (PIBA 0.1 µg) it was 7.1; on HRP (PIBA 1 µg), 31.5; at HRP (PIBA 10 µg), 98; at HRP (PIBA 20 µg) it was 35.2.

For butaneborinic acid [Compound 5005], at HRP Type VIA [4] (40µl of 1mg/ml compound), the “Signal (no HRP)” value is listed as 54,389, the “Signal (with HRP)” value was 65,197 and the “Signal: Background ratio” value was 1.2.
